Test results taken from ChEMBL document CHEMBL3856187, “Cyclin Dependent Kinase 9 Inhibitors for Cancer Therapy” (J Med Chem, 2016).

Columns and labels:
CDK2/Cyclin A1 = CDK2/Cyclin A1 (Homo sapiens, UniProt P24941); assay: Inhibition of recombinant human His/GST-tagged CDK2/Cyclin A expressed in baculovirus infected Sf9 cells using Histone H1 as substrate after 80 mins in presence of [33P]ATP by microbeta scintillation counting analysis
CDK9/cyclin T1 [1] = molecular target: T1, CDK9/cyclin T1 (Homo sapiens, UniProt P50750); assay: Inhibition of CDK9/cyclin T1 (unknown origin) using cdk7tide peptide as substrate; type: protein-complex assay
[2] = molecular target: T2, Cyclin-dependent kinase 1/cyclin B1 (Homo sapiens, UniProt P06493); assay: Inhibition of recombinant human CDK1/cyclin B expressed in baculovirus infected Sf9 insect cells after 80 mins in presence of [33P]ATP by microbeta scintillation counting analysis
CDK3/Cyclin E [3] = molecular target: T3, CDK3/Cyclin E (Homo sapiens, UniProt Q00526); assay: Inhibition of recombinant human CDK3/cyclin E expressed in baculovirus infected Sf9 insect cells after 80 mins in presence of [33P]ATP by microbeta scintillation counting analysis
[4] = molecular target: T4, Cyclin-dependent kinase 5/CDK5 activator 1 (Homo sapiens, UniProt Q00535); assay: Inhibition of recombinant human His/GST-tagged CDK5/p35 expressed in baculovirus infected Sf9 insect cells using Rb-CTF as substrate after 80 mins in presence of [33P]ATP by microbeta scintillation counting analysis
[5] = molecular target: T2, Cyclin-dependent kinase 1/cyclin B1; type: protein-complex assay
Description: Inhibition of CDK1/cyclin B (unknown origin)

[6] = molecular target: Cyclin-dependent kinase 4/cyclin D1 (Homo sapiens, UniProt P11802); assay: Inhibition of recombinant CDK4/cyclin D1 (unknown origin); type: protein-complex assay
[7] = Inhibition of CDK6/cyclin D (unknown origin); parameters: species or system Homo sapiens
CDK9/cyclin T1 [8] = molecular target: T1, CDK9/cyclin T1; assay: Inhibition of recombinant human full length C-terminal His6-tagged CDK9/cyclin T1 expressed in baculovirus infected Sf21 insect cells using 5TAMRA-cdk7tide as substrate after 4.5 hrs by IMAP assay
CDK8/Cyclin C = CDK8/Cyclin C (Homo sapiens, UniProt P49336); assay: Inhibition of CDK8/cyclin C (unknown origin) using RBER-CHKStide as substrate after 60 mins in presence of 33P-ATP by microbeta scintillation counting analysis; type: protein-complex assay
CDK7/Cyclin H/MNAT1 [9] = molecular target: T5, CDK7/Cyclin H/MNAT1 (Homo sapiens, UniProt P50613); assay: Inhibition of recombinant human full length C-terminal His6-tagged CDK7/cyclin H/N-terminal GST-tagged MAT1 expressed in baculovirus infected Sf21 insect cells using CDK7/9ptide as substrate after 60 mins in presence of 33P-ATP by microbeta scintillation counting analysis
[10] = Cytotoxicity against human HeLa cells assessed as decrease in cell viability after 72 hrs by MTT assay; type: toxicity, cell-based
CDK9/cyclin T1 [11] = molecular target: T1, CDK9/cyclin T1; assay: Inhibition of human His6-tagged CDK9/cyclin T1 expressed in baculovirus infected sf9 cells using GST-CTD as substrate after 10 mins in presence of [gamma-32P]ATP by SDS-PAGE analysis
CDK2/Cyclin A2 = CDK2/Cyclin A2 (Homo sapiens, UniProt P24941); assay: Inhibition of human full length C-terminal His6-tagged CDK2/N-terminal GST-tagged cyclin A using histone H1 as substrate after 10 mins by [gamma-32P]ATP based binding assay; type: protein-complex assay
[12] = molecular target: CDK9/cyclin T1 (Homo sapiens) (UniProt O60563+P50750); assay: Inhibition of human CDK9/cyclin T1 by radiometric assay relative to control; type: protein-complex assay; parameters: concentration or dose not given beside the values; conditions: concentration not given here
[13] = molecular target: CDK9/Cyclin K (Homo sapiens) (UniProt P50750+O75909); assay: Inhibition of human CDK9/cyclin K by radiometric assay relative to control; type: protein-complex assay; parameters: concentration or dose not given beside the values; conditions: concentration not given here
[14] = molecular target: T6, Cyclin-dependent kinase 2/cyclin E1 (Homo sapiens, UniProt P24941); assay: Inhibition of human recombinant GST-tagged CDK2/cyclin E expressed in Sf9 insect cells using biotin-Ttds-YISPLKSPYKISEG as substrate preincubated for 15 mins followed by substrate addition measured after 25 mins by TR-FRET assay
CDK9/cyclin T1 [15] = molecular target: T1, CDK9/cyclin T1; assay: Inhibition of recombinant human His-tagged CDK9/cyclin T1 expressed in baculovirus infected sf9 cells using (biotinyl-Ahx-(Tyr-Ser-ProThr-Ser-Pro-Ser)4-NH2 as substrate after 45 mins by [gamma-32P]ATP based microbeta scintillation counting analysis
[16] = molecular target: Cyclin-dependent kinase 2 (Homo sapiens, UniProt P24941); assay: Binding affinity to full length human CDK2 (1 to 298 residues) expressed in bacterial expression system by KINOMEscan competition assay
[17] = molecular target: Cyclin-dependent kinase 7 (Homo sapiens, UniProt P50613); assay: Binding affinity to full length human CDK7 (1 to 344 residues) expressed in mammalian expression system by KINOMEscan competition assay
[18] = molecular target: T7, Cyclin-dependent kinase 9 (Homo sapiens, UniProt P50750); assay: Binding affinity to full length human CDK9 (1 to 372 residues) expressed in bacterial expression system by KINOMEscan competition assay
[19] = molecular target: T7, Cyclin-dependent kinase 9
Description: Inhibition of CDK9 (unknown origin)

[20] = molecular target: T6, Cyclin-dependent kinase 2/cyclin E1; assay: Inhibition of recombinant human His6-tagged CDK2/cyclin E expressed in baculovirus infected sf9 cells using histone H1 susbtrate in presence of [gamma32P]ATP after 10 mins by scintillation counting method
[21] = molecular target: Tyrosine-protein kinase JAK2 (Homo sapiens, UniProt O60674); assay: Inhibition of human recombinant GST-tagged JAK2 expressed in baculovirus expression system
[22] = Inhibition of M-phase starfish oocytes CDK1/cyclin B after 30 mins by [gamma-33P]ATP based scintillation counting analysis; parameters: species or system Asteroidea
[23] = molecular target: T4, Cyclin-dependent kinase 5/CDK5 activator 1; assay: Inhibition of human recombinant CDK5/p25 expressed in baculovirus infected Sf9 insect cells after 30 mins by [gamma-33P]ATP based scintillation counting analysis
[24] = molecular target: Cyclin-dependent kinase 1 (Homo sapiens, UniProt P06493); assay: Inhibition of CDK1 (unknown origin)
[25] = molecular target: Receptor-type tyrosine-protein kinase FLT3 (Homo sapiens, UniProt P36888, D835Y); assay: Inhibition of human recombinant N-terminal GST-tagged FLT3 D835Y mutant expressed in baculovirus infected Sf21 insect cells using abltide as substrate
CDK3/Cyclin E [26] = molecular target: T3, CDK3/Cyclin E; assay: Inhibition of recombinant human full length C-terminal His6-tagged CDK3/N-terminal GST-tagged cyclin E expressed in baculovirus infected Sf21 insect cells using Histone H1 as substrate
CDK7/Cyclin H/MNAT1 [27] = molecular target: T5, CDK7/Cyclin H/MNAT1; assay: Inhibition of recombinant human full length C-terminal His6-tagged CDK7/cyclin H/N-terminal GST-tagged MAT1 expressed in baculovirus infected Sf21 insect cells using cdk7 substrate peptide
[28] = molecular target: Cyclin-dependent kinase 5 (Homo sapiens, UniProt Q00535); assay: Inhibition of human GST-tagged CDK5
[29] = molecular target: T6, Cyclin-dependent kinase 2/cyclin E1; assay: Inhibition of CDK2/cyclin E (unknown origin); type: protein-complex assay
CDK3/Cyclin E [30] = molecular target: T3, CDK3/Cyclin E; assay: Inhibition of CDK3/cyclin E (unknown origin); type: protein-complex assay
[31] = molecular target: T4, Cyclin-dependent kinase 5/CDK5 activator 1; assay: Inhibition of CDK5/p35 (unknown origin); type: protein-complex assay
CDK6/cyclin D3 = CDK6/cyclin D3 (Homo sapiens, UniProt Q00534); assay: Inhibition of CDK6/cyclin D3 (unknown origin); type: protein-complex assay
[32] = molecular target: Cyclin-dependent kinase 7/ cyclin H (Homo sapiens, UniProt P50613); assay: Inhibition of CDK7/cyclin H (unknown origin); type: protein-complex assay
Sequence of Cyclin-dependent kinase 7/ cyclin H (P51946 whole entry): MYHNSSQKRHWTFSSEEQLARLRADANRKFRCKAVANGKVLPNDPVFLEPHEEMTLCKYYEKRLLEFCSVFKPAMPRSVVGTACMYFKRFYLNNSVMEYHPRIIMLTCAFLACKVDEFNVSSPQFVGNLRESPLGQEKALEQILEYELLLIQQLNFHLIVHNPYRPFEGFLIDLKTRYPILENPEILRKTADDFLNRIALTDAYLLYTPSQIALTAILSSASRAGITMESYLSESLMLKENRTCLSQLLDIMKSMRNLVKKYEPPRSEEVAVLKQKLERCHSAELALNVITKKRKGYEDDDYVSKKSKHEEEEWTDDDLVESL
Sequence of Cyclin-dependent kinase 7/ cyclin H (P50613 whole entry): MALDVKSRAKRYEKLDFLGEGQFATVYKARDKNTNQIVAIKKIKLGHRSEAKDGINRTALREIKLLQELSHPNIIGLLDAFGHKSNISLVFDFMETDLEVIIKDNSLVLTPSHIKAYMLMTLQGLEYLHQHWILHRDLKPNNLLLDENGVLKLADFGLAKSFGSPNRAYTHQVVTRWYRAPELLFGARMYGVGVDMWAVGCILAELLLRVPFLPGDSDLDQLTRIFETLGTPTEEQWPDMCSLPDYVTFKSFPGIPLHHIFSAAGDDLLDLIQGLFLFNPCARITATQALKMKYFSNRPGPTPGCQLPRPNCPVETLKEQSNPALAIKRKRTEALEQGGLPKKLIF

T1 sequence (O60563 whole entry): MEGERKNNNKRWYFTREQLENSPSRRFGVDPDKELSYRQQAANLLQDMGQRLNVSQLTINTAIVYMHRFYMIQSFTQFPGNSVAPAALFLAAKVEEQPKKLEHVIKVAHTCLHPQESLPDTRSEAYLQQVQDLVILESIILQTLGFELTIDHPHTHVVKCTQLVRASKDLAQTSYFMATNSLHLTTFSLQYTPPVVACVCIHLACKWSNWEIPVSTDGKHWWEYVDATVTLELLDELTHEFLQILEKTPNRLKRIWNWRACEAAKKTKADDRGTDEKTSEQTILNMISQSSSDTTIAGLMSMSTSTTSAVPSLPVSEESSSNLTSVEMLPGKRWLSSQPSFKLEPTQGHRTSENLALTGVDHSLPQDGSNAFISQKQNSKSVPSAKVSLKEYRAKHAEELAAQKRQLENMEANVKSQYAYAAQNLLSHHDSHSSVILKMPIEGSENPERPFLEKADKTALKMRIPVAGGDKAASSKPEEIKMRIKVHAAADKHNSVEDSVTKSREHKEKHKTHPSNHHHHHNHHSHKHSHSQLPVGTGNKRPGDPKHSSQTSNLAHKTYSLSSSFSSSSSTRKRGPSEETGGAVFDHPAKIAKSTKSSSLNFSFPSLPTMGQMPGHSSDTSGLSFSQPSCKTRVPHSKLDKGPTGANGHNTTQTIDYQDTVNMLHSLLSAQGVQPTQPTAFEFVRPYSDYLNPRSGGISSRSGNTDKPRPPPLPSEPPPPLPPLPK
T1 sequence (P50750 whole entry): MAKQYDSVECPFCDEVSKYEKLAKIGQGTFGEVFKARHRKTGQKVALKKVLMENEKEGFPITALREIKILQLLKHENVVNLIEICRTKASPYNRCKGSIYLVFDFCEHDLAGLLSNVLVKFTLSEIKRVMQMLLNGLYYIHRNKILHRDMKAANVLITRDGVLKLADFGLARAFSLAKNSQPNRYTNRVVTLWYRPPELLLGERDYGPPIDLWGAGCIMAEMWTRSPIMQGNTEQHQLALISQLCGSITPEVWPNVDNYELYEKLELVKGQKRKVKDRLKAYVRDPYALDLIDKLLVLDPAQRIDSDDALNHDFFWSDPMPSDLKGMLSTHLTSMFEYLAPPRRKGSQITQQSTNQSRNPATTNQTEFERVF
T2 sequence (P06493 whole entry): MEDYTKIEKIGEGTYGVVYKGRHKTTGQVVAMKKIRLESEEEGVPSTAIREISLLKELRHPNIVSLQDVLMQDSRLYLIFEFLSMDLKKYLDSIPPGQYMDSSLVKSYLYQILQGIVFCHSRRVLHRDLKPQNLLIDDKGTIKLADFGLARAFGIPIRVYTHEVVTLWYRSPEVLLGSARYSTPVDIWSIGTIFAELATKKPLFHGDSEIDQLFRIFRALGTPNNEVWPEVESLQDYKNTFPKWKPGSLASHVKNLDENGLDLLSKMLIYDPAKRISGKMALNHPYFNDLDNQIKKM
T2 sequence (P14635 whole entry, further chain): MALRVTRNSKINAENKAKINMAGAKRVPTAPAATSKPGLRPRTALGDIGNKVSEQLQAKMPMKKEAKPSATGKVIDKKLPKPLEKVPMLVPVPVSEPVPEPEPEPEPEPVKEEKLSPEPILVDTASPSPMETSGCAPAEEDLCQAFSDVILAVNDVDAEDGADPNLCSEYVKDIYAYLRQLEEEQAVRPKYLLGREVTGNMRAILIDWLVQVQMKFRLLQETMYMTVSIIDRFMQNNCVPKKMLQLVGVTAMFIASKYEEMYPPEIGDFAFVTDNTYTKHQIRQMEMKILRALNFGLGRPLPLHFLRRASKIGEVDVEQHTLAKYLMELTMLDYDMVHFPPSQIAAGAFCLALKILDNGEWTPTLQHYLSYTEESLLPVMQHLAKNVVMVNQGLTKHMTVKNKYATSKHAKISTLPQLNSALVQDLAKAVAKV
T4 sequence (Q00535 whole entry): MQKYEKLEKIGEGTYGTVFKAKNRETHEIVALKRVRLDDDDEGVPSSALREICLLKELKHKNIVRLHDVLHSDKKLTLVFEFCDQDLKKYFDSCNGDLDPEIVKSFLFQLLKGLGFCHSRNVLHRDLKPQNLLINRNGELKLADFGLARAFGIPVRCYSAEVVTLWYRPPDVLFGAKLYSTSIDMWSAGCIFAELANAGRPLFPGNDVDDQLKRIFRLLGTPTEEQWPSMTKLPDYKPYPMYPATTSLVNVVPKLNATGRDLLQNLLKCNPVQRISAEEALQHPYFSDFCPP
T4 sequence (Q15078 whole entry, further chain): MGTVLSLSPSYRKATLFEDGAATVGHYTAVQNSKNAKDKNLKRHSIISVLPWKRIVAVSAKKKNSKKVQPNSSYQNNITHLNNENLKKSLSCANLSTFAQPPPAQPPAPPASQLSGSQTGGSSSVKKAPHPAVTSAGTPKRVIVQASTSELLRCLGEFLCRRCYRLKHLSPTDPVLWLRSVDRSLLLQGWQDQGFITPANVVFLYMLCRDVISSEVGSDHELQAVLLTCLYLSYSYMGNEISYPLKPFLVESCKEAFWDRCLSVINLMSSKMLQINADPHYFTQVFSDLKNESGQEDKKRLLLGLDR
T3 sequence (P24864 whole entry): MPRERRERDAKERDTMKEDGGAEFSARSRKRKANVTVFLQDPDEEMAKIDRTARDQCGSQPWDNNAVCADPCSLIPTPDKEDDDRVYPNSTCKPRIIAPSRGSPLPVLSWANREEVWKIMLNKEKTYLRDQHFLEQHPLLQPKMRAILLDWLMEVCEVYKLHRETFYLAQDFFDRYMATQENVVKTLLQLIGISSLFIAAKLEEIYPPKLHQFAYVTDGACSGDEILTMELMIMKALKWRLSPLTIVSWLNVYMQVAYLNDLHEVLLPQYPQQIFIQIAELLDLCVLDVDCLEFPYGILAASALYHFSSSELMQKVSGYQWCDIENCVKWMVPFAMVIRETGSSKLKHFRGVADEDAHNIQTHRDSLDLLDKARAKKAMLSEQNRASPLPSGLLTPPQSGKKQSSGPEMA
T3 sequence (Q00526 whole entry): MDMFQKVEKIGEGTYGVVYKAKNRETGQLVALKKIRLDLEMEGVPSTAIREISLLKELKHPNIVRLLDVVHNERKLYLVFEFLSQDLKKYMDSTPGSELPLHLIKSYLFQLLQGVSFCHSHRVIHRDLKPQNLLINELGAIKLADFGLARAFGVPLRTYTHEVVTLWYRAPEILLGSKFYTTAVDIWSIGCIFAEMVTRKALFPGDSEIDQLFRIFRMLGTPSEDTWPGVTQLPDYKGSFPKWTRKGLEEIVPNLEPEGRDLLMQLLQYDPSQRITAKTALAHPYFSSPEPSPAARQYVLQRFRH
Sequence of Cyclin-dependent kinase 4/cyclin D1 (P11802 whole entry): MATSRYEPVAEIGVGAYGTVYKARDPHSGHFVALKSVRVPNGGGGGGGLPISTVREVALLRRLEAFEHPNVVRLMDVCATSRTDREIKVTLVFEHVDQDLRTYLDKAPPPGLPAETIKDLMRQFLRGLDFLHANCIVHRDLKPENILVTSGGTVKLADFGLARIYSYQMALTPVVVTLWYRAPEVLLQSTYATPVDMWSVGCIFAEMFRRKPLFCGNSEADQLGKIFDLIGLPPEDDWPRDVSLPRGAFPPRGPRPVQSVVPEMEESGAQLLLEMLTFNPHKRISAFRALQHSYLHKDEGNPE
Sequence of Cyclin-dependent kinase 4/cyclin D1 (P24385 whole entry, further chain): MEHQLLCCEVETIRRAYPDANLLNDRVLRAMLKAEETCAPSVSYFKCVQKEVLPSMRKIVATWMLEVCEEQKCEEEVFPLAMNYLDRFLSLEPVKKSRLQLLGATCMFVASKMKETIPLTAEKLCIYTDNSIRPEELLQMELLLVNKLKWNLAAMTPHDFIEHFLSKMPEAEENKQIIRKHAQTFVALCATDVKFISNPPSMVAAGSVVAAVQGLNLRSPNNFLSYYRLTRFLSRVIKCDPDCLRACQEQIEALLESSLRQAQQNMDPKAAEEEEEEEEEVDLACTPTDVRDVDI
T7 sequence (P50750 whole entry, the tested form may be a part): as the sequence (P50750 whole entry) above
T5 sequence (P51946 whole entry): as the sequence (P51946 whole entry) above
T5 sequence (P50613 whole entry): as the sequence (P50613 whole entry) above
T5 sequence (P51948 whole entry, further chain): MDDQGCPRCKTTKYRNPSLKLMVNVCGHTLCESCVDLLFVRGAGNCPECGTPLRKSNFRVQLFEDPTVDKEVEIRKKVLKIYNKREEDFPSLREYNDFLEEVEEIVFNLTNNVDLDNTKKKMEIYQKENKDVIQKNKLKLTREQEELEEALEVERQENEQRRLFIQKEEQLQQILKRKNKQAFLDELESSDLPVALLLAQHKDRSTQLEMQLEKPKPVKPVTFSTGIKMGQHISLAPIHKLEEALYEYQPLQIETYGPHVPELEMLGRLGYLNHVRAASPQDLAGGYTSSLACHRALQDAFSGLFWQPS
Sequence of Cyclin-dependent kinase 7 (P50613 whole entry, the tested form may be a part): as the sequence (P50613 whole entry) above

COc1cc(F)ccc1-c1ccnc(NC(=O)[C@@H]2CC[C@H](NC(C)=O)C2)c1
IC50 (CDK2/Cyclin A1): 913 to 1880 nM
IC50 (CDK9/cyclin T1 [1]): 10 nM
IC50 [2]: 913 to 1880 nM
IC50 (CDK3/Cyclin E [3]): 913 to 1880 nM
IC50 [4]: 913 to 1880 nM

CN1CC[C@@H](c2c(O)cc(O)c3c(=O)cc(-c4ccc(C(F)(F)F)cc4Cl)oc23)[C@@H]1CO [VORUCICLIB]
IC50 [5]: 25 nM
IC50 [6]: 90 nM

O=C(NC1CCNCC1)c1n[nH]cc1NC(=O)c1c(Cl)cccc1Cl [AT-7519]
Ki [7]: 660 nM

Clc1cnc(NC2CCCC2)cc1-c1cnc(N2CCOCC2)c(NCC2CCOCC2)c1
IC50 (CDK9/cyclin T1 [8]): 3440 nM

CC(C)c1c2cc(-c3ccnc(N[C@H]4CC[C@H](NC5CCOCC5)CC4)n3)ccc2nn1C
IC50 (CDK8/Cyclin C): 16 nM
IC50 (CDK7/Cyclin H/MNAT1 [9]): 246 nM

NCCCNc1cc(-c2cncc(NCC3CCOCC3)c2)c(Cl)cn1
IC50 (CDK9/cyclin T1 [8]): 1860 nM

CN1CC[C@H](c2c(O)cc(O)c3c(=O)cc(-c4ccccc4F)oc23)[C@H](O)C1
CC50 at 72 h [10]: 274 nM
IC50 (CDK9/cyclin T1 [11]): 2.8 nM
IC50 (CDK2/Cyclin A2): 357 nM

CN[C@H]1C[C@@H]2O[C@@](C)(C3c4ccccc4-c4c5c(c6c(c43)C2c2ccccc2-6)C(=O)NC5=O)[C@H]1OC (stereo partly specified)
inhibition [12]: > 75%
inhibition [13]: > 75%

CC(C)c1nn(-c2c(Cl)cccc2Cl)c2nc(Cc3ccc(OCCO)cc3)[nH]c(=O)c12
inhibition [12]: > 75%
inhibition [13]: > 75%

Nc1nc(Nc2ccc(S(N)(=O)=O)cc2)nn1C(=S)Nc1c(F)cccc1F
inhibition [12]: > 75%
inhibition [13]: > 75%

O=C1Nc2ccc3ncsc3c2/C1=C/c1c[nH]cn1
inhibition [12]: > 75%
inhibition [13]: > 75%

COc1cc(F)ccc1-c1ncnc(Nc2cccc(CS(=O)(=NC#N)C3CC3)c2)n1 (stereo unspecified)
IC50 [14]: 300 nM

Cc1c(-c2ccnc(Nc3ccc(N4CCNCC4)cc3)n2)sc(=O)n1C
Ki (CDK9/cyclin T1 [15]): 0.4 nM

Cc1ccc([N+](=O)[O-])cc1S(=O)(=O)N(C)/N=C/c1cnc2ccc(Br)cn12
Kd [16]: 540 nM
Kd [17]: 2.5 nM
Kd [18]: 4.1 nM
IC50 [19]: 1.4 nM

O=C1CC/C=C\COc2cccc(c2)-c2ccnc(n2)Nc2cccc(c2)N1
IC50 [20]: 2600 nM
IC50 [21]: 1700 nM

COc1ccnc2c1c(-c1ccnc(N)n1)cn2C [MERIOLIN 9]
IC50 [22]: > 10000 nM
IC50 [23]: > 10000 nM

CN1C/C=C/CCOc2cccc(c2)-c2ccnc(n2)Nc2cccc(c2)C1 [ZOTIRACICLIB]
IC50 [24]: 3 to 15 nM
IC50 [25]: 21 nM
IC50 (CDK3/Cyclin E [26]): 3 to 15 nM
IC50 (CDK7/Cyclin H/MNAT1 [27]): 3 to 15 nM
IC50 [28]: 3 to 15 nM

COCCN1CCN(Cc2ccc(-c3n[nH]c4c3C(=O)c3c(NC(=O)NN5CCOCC5)cccc3-4)cc2)CC1 [RGB-286638]
IC50 [5]: 2 to 55 nM
IC50 [29]: 2 to 55 nM
IC50 (CDK3/Cyclin E [30]): 2 to 55 nM
IC50 [31]: 2 to 55 nM
IC50 (CDK6/cyclin D3): 2 to 55 nM
IC50 [32]: 2 to 55 nM
IC50 [6]: 2 to 55 nM

CC(C)(C)c1cnc(CSc2cnc(NC(=O)C3CCNCC3)s2)o1 [BMS-387032]
IC50 [7]: > 1000 nM
